Here are results for 24 molecules from patent US12583856B2, “Inhibitors of protein kinase A” (Blueprint Medicines Corporation, priority 2021, dated 2026).

Some results are limits rather than exact numbers.

In one experiment the target is T1, PRKACA (Homo sapiens, UniProt P17612).
T1 construct: purchased Millipore 539482
Put plainly: PRKACA assay at Km (EZ Reader 2 electrophoretic mobility shift). Type of experiment: biochemical. The note with it: 5 μM ATP (Km), 1 μM Kemptide, 90 minutes at 25 C; read-out: Enz PRKACA IC50. As to the method: (§1) A Perkin Elmer electrophoretic mobility shift platform (the EZ Reader 2) was used to assess the activity of test compounds against a kinase of interest. Fluorescently labeled substrate peptide was incubated in the presence of kinase, ATP, and the test compound, so that a portion of the peptide was phosphorylated by the enzyme. At the end of the reaction, the mix of phosphorylated (product) and non-phosphorylated (substrate) peptide containing solutions was passed through the microfluidic system of the Perkin Elmer EZ Reader 2 under an applied potential difference. The presence of the phosphate group on the product peptide provided a difference in mass and charge between those of the substrate peptide, resulting in a separation of the substrate and product pools in the sample. As the stopped solutions passed under the instrument's LED light the phosphorylated and un-phosphorylated fluorophore bound peptides were detected and resolved as separate peaks. The ratio between these peaks therefore reflected the test compound's impact on the kinase at that concentration in that well under those conditions.
PRKACA assay at Km: In each well of a 384-well plate, 0.007 ng/ul (0.18 nM) of PRKACA enzyme (Millipore: 539482) was incubated in a total of 12.5 μl of buffer (100 mM HEPES pH 7.5, 0.015% Brij 35, 10 mM MgCl2, 1 mM DTT) with 1 μM Kemptide peptide substrate (5-FAM-LRRASLG) (Anaspec 29933) and 5 μM ATP at 25 C for 90 minutes in the presence or absence of a dosed concentration series of test compounds (1% DMSO final concentration). The reaction was stopped by the addition of 80 μl of Stop buffer (100 mM HEPES pH 7.5, 0.015% Brij 35, 35 mM EDTA and 0.2% of Coating Reagent 3 (Perkin Elmer)). The plate was then read on the EZ Reader 2 (protocol settings: −2.0 psi, upstream voltage −700, downstream voltage −2700, post sample sip 60 seconds). Data was normalized to 0% and 100% inhibition controls and the IC50 calculated using a 4-parameter fit using GraphPad Prism.
For orientation: In EMSA bound probe runs differently from free probe, usually more slowly.

For a further experiment, the target named is T2, PRKACA-DNAJB1 (Homo sapiens, UniProt P17612).
T2 construct: DNAJB1 (fusion partner, P25685); the other entry of the earlier key: DNAJB1 (P25685, DnaJ homolog subfamily B member 1)
The experiment is described as follows: PRKACA-DNAJB1 enzyme assay (EZ Reader 2 electrophoretic mobility shift). The conditions noted are these: read-out: Enz PRKACA-DNAJB1 IC50. Type of experiment: biochemical. As to the method: as §1

In experiment [1] the test system is PKA (phosphorylation of VASP on Serine 157). Put plainly: Cellular potency assay: P-VASP(157) HTRF in Forskolin-stimulated Huh7 cells. Type of experiment: cell-based. The note with it: Homo sapiens, Huh-7, 4 hours compound, 5 μM Forskolin 30 minutes, read-out: Phos VASP(S157) IC50. An excerpt:
PKA directly phosphorylate VASP on Serine 157. Phosphorylation of VASP on Serine 157. P-VASP(157) was therefore used as a readout of PKA cellular activity. P-VASP(157) was detected with a HTRF assay, which is based on a TR-FRET sandwich immunoassay-based format comprising two specific anti-VASP antibodies following the manufactors protocol (Cisbio, Catalog No. 63ADK066PEH). PKA was activated in the assay by the addition of Forskolin (Sigma-Aldrich, Catalog No. F3917).
Dose response in Forskolin-stimulated human Huh7 cells was measured as follows. Briefly, Huh7 cells were plated at a density of 2×10^4 cells per well in a 384-well opti-well cell culture plate in 15 μl of serum- and phenol-free Dulbecco's Modified Eagle Medium (DMEM, Gibco Catalog No. 21063-029), and incubated for over night at 37° C., 5% CO2. The next day, 3 μl of a dosed concentration series of test compound (0.24%) DMSO final concentration) was added to the wells, and the cells were incubated for an additional 4 hours at 37° C., 5% CO2. 2 μl of Forskolin was added at a final concentration of 5 μM and the plates were incubated for 30 minutes at 37° C., 5% CO2. 5 μl of lysis buffer containing 1% HALT protease cocktail inhibitors (ThermoFisher, Catalog No. 78430), was added to the cells and the mixture was incubated under gentle shaking for 30 min at room temperature. 10 μl of this lysate was transferred to a 384-well proxi plate and 2.5 μL of the premixed antibody solution was added. An antibody solution was prepared by combining phopho-VASP cryptate antibody and phospho-VASP d2 antibody, at twenty-fold dilution into a buffer solution following the manufactors' protocol. The lysate and antibody mixture was incubated for either 3 h at room temperature or overnight at 4° C. The fluorescence emission at two different wavelengths (665 nm and 620 nm) was read on an EnVision instrument.

For `O=C(N[C@@H]1c2ccccc2C[C@@H]1CO)c1ccc(-c2ccnc3[nH]ccc23)cc1` (single isomer, unassigned) [Compound 108], the IC50 (usually the concentration at which inhibition is half-maximal) at PRKACA is ≤ 1 nM; on PRKACA-DNAJB1 it was ≤ 1 nM; in experiment [1], < 50 nM.

Consider `O=C(N[C@H]1C[C@@H](O)c2cccc(F)c21)c1ccc(-c2ccnc3[nH]ccc23)nc1` (single isomer, unassigned) [Compound 119], for which the half-inhibitory concentration (IC50) at PRKACA was ≤ 1 nM; on PRKACA-DNAJB1 it was 1.01 to 5 nM; in experiment [1], > 100 nM.

For `O=C(N[C@H]1CCc2cc(C(F)F)ccc21)c1ccc(-c2ccnc3[nH]ccc23)cc1` (single isomer, unassigned) [Compound 125], the IC50 was ≤ 1 nM on PRKACA, ≤ 1 nM at PRKACA-DNAJB1 and < 50 nM in experiment [1].

For `C[C@H]1Oc2cccc(F)c2[C@@H](NC(=O)c2ccc(-c3ccnc4[nH]ccc34)nc2)[C@H]1O` (single isomer, unassigned) [Compound 136], the IC50 on PRKACA was ≤ 1 nM; at PRKACA-DNAJB1 it was ≤ 1 nM; in experiment [1] it was 0.01 to 100 nM.

As for `Cc1c[nH]c2nccc(-c3ccc(C(=O)N[C@@H]4c5c(F)cc(C(F)F)cc5OCC4O)cn3)c12` (single isomer, unassigned) [Compound 171], the IC50 on PRKACA is ≤ 1 nM; at PRKACA-DNAJB1 it was ≤ 1 nM; in experiment [1], < 50 nM.

Regarding `Cc1c[nH]c2nccc(-c3ccc(C(=O)N[C@@H]4c5c(F)cc(C(F)F)cc5OCC4O)cn3)c12` (single isomer, unassigned) [Compound 172], the IC50 at PRKACA was ≤ 1 nM; at PRKACA-DNAJB1, ≤ 1 nM; in experiment [1] it was < 50 nM.

With `N[C@@H]1Cc2ccccc2[C@H]1NC(=O)c1ccc(-c2ccnc3[nH]ccc23)cc1` [Compound 100, N-[(1R,2R)-2-Amino-2,3-dihydro-1H-inden-1-yl]-4-{1H-pyrrolo[2,3-b]pyridin-4-yl}benzamide], the concentration for half-maximal inhibition (IC50) is ≤ 1 nM on PRKACA, ≤ 1 nM at PRKACA-DNAJB1 and < 50 nM in experiment [1].

As to `O=C(N[C@@H]1c2ccccc2C[C@@H]1O)c1ccc(-c2ccnc3[nH]ccc23)cc1` [Compound 101, N-[(1R,2S)-2-Hydroxy-2,3-dihydro-1H-inden-1-yl]-4-{1H-pyrrolo[2,3-b]pyridin-4-yl}benzamide], the IC50 is ≤ 1 nM on PRKACA, ≤ 1 nM at PRKACA-DNAJB1 and < 50 nM in experiment [1].

In the case of `O=C(N[C@@H]1c2ccccc2C[C@H]1O)c1ccc(-c2ccnc3[nH]ccc23)cc1` [Compound 102], the IC50 at PRKACA is ≤ 1 nM; on PRKACA-DNAJB1, ≤ 1 nM; in experiment [1] it was 0.01 to 100 nM.

For the molecule `O=C(N[C@H]1CCOc2ccccc21)c1ccc(-c2ccnc3[nH]ccc23)cc1` [Compound 103], the results for the half-inhibitory concentration (IC50) (on PRKACA; on PRKACA-DNAJB1; in experiment [1]) were ≤ 1 nM, ≤ 1 nM and < 50 nM, respectively.

As for `O=C(N[C@@H]1c2ccccc2C[C@H]1F)c1ccc(-c2ccnc3[nH]ccc23)cc1` [Compound 104, N-((1R,2R)-2-Fluoro-2,3-dihydro-1H-inden-1-yl)-4-(1H-pyrrolo[2,3-b]pyridin-4-yl)benzamide], the figures for the IC50 (on PRKACA; at PRKACA-DNAJB1; in experiment [1]) were ≤ 1 nM, ≤ 1 nM and 0.01 to 100 nM, respectively.

For the molecule `Cc1c[nH]c2nccc(-c3ccc(C(=O)N[C@@H]4c5ccccc5C[C@H]4O)cc3)c12` [Compound 107, N-[(1R,2R)-2-Hydroxy-2,3-dihydro-1H-inden-1-yl]-4-{3-methyl-1H-pyrrolo[2,3-b]pyridin-4-yl}benzamide], the IC50 at PRKACA was ≤ 1 nM; on PRKACA-DNAJB1, ≤ 1 nM; in experiment [1], < 50 nM.

In the case of `C[C@@H]1C[C@H](NC(=O)c2ccc(-c3ccnc4[nH]ccc34)cc2)c2ccccc2O1` [Compound 109], the half-inhibitory concentration (IC50) was ≤ 1 nM on PRKACA, ≤ 1 nM at PRKACA-DNAJB1 and < 50 nM in experiment [1].

Consider `O=C(N[C@@H]1c2ccccc2OC[C@@H]1O)c1ccc(-c2ccnc3[nH]ccc23)cc1` [Compound 110, N-[(3R,4R)-3-Hydroxy-3,4-dihydro-2H-1-benzopyran-4-yl]-4-{1H-pyrrolo[2,3-b]pyridin-4-yl}benzamide], for which the IC50 on PRKACA is ≤ 1 nM; on PRKACA-DNAJB1 it was ≤ 1 nM; in experiment [1], < 50 nM.

As to `O=C(N[C@@H]1c2ccccc2C[C@H]1O)c1ccc(-c2ccnc3[nH]cc(F)c23)cc1` [Compound 111], the IC50 on PRKACA was ≤ 1 nM; on PRKACA-DNAJB1 it was ≤ 1 nM; in experiment [1] it was < 50 nM.

Regarding `O=C(N[C@@H]1c2ccccc2C[C@@H]1O)c1ccc(-c2ccnc3[nH]cc(F)c23)cc1` [Compound 112, 4-(3-Fluoro-1H-pyrrolo[2,3-b]pyridin-4-yl)-N-((1R,2S)-2-hydroxy-2,3-dihydro-1H-inden-1-yl)benzamide], the IC50 at PRKACA is ≤ 1 nM; at PRKACA-DNAJB1 it was ≤ 1 nM; in experiment [1], 0.01 to 100 nM.

As to `O=C(N[C@H]1CCOc2cc(F)ccc21)c1ccc(-c2ccnc3[nH]ccc23)cc1` [Compound 113], the IC50 at PRKACA is ≤ 1 nM; at PRKACA-DNAJB1, 1.01 to 5 nM; in experiment [1], 0.01 to 100 nM.

Consider `O=C(N[C@H]1CCOc2ccc(F)cc21)c1ccc(-c2ccnc3[nH]ccc23)cc1` [Compound 114], for which the IC50 on PRKACA was ≤ 1 nM; at PRKACA-DNAJB1 it was ≤ 1 nM; in experiment [1], < 50 nM.

Take `O=C(N[C@H]1CCOc2ccccc21)c1ccc(-c2ccnc3[nH]cc(F)c23)cc1` [Compound 115]: the IC50 on PRKACA is ≤ 1 nM; on PRKACA-DNAJB1, ≤ 1 nM; in experiment [1], < 50 nM.

With `O=C(N[C@H]1CCOc2cccc(F)c21)c1ccc(-c2ccnc3[nH]ccc23)nc1` [Compound 117, (S)—N-(5-Fluorochroman-4-yl)-6-(1H-pyrrolo[2,3-b]pyridin-4-yl)nicotinamide], the IC50 on PRKACA is ≤ 1 nM; on PRKACA-DNAJB1 it was ≤ 1 nM; in experiment [1], < 50 nM.

As to `CN(C)[C@@H]1Cc2ccccc2[C@H]1NC(=O)c1ccc(-c2ccnc3[nH]ccc23)cc1` [Compound 120, N-[(1R,2R)-2-(Dimethylamino)-2,3-dihydro-1H-inden-1-yl]-4-{1H-pyrrolo[2,3-b]pyridin-4-yl}benzamide], the IC50 on PRKACA was ≤ 1 nM; at PRKACA-DNAJB1 it was ≤ 1 nM; in experiment [1], < 50 nM.

For the molecule `Cc1c[nH]c2nccc(-c3ccc(C(=O)N[C@H]4CCOc5cccc(F)c54)cn3)c12` [Compound 121, (S)—N-(5-Fluorochroman-4-yl)-6-(3-methyl-1H-pyrrolo[2,3-b]pyridin-4-yl)nicotinamide], the concentration for half-maximal inhibition (IC50) at PRKACA is ≤ 1 nM; on PRKACA-DNAJB1 it was 1.01 to 5 nM; in experiment [1] it was 0.01 to 100 nM.

On to `CN(C)C(=O)[C@H]1N([C@@H]2Cc3cccc(Cl)c3[C@H]2NC(=O)c2ccc(-c3ccnc4[nH]ccc34)nc2)CC1(C)C` [Compound 192, N-[(1R,2R)-7-Chloro-2-[(2S)-2-(dimethylcarbamoyl)-3,3-dimethylazetidin-1-yl]-2,3-dihydro-1H-inden-1-yl]-6-{1H-pyrrolo[2,3-b]pyridin-4-yl}pyridine-3-carboxamide], for which the IC50 on PRKACA is ≤ 1 nM; in experiment [1], < 50 nM.

Consider `CN(C)C(=O)[C@H]1N([C@@H]2Cc3cccc(Cl)c3[C@H]2NC(=O)c2ccc(-c3ccnc4[nH]ccc34)cn2)CC1(C)C` [Compound 193], for which the IC50 is ≤ 1 nM at PRKACA and < 50 nM in experiment [1].
